# Data as given in patent US20220241402A1, “COMBINATION OF HEPATITIS B VIRUS (HBV) VACCINES AND QUINAZOLINE DERIVATIVES” (Janssen Sciences Ireland Unlimited Company, priority 2019, published 2022).
# Key:
# human TLR7 = target: T1, human TLR7 (Homo sapiens, UniProt Q9NYK1); assay: TLR7 cellular NFκB-luc reporter assay; format: cell-based; parameters: unit not given here; conditions: lowest effective concentration; HEK293 cells transiently transfected with TLR7 and NFκB-luc, 6 h incubation
# T1 construct: expressed in transfected cells; host or cells: HEK293
# T1 sequence (Q9NYK1 27-1049): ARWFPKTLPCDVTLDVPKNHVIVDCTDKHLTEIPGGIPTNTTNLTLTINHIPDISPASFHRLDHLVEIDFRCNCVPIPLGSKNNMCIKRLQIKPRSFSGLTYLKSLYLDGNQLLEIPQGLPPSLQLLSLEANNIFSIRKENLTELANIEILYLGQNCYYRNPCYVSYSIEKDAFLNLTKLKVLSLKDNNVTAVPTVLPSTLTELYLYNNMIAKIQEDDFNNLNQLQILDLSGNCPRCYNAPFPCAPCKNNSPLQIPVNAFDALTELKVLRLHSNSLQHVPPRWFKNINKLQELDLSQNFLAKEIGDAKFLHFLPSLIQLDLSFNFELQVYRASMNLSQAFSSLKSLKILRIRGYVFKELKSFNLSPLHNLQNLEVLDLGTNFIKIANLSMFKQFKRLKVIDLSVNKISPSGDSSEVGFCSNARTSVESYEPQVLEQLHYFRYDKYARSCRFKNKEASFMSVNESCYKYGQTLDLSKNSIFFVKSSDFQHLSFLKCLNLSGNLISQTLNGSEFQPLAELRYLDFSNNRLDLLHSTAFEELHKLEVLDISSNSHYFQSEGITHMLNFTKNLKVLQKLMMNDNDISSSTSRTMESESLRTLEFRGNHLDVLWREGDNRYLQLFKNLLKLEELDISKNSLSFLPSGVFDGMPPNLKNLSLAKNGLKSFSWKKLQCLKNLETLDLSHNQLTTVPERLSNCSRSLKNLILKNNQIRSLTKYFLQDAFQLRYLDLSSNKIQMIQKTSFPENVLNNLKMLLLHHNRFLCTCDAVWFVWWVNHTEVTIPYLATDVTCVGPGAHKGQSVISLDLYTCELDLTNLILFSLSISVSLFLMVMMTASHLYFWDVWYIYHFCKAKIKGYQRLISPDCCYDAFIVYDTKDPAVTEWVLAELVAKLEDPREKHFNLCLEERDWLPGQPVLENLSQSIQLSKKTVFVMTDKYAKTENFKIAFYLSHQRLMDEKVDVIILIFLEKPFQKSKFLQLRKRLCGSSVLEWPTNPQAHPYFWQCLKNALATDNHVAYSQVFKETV
# Method: (§1) The ability of compounds to activate human TLR7 and/or TLR8 was assessed in a cellular reporter assay using HEK293 cells transiently transfected with a TLR7 or TLR8 expression vector and NFκB-luc reporter construct. In one instance, the TLR expression construct expresses the respective wild type sequence or a mutant sequence comprising a deletion in the second leucine-rich repeat of the TLR.
# (§2) HEK293 cells were grown in culture medium (DMEM supplemented with 10% FCS and 2 mM Glutamine). For transfection of cells in 10 cm dishes, cells were detached with Trypsin-EDTA, transfected with a mix of CMV-TLR7 or TLR8 plasmid (750 ng), NFκB-luc plasmid (375 ng) and a transfection reagent and incubated 24 h at 37° C. in a humidified 5% CO2 atmosphere. Transfected cells were then detached with Trypsin-EDTA, washed in PBS and re-suspended in medium to a density of 1.67×10^5 cells/mL. Thirty microliters of cells were then dispensed into each well in 384-well plates, where 10 μL of compound in 4% DMSO was already present. Following 6 h incubation at 37° C., 5% CO2, the luciferase activity was determined by adding 15 μl of STEADY LITE PLUS substrate (PERKIN ELMER) to each well and readout performed on a VIEWLUX ULTRAHTS microplate imager (PERKIN ELMER). Dose response curves were generated from measurements performed in quadruplicates. Lowest effective concentrations (LEC) values, defined as the concentration that induces an effect which is at least two-fold above the standard deviation of the assay, were determined for each compound.
# human TLR8 = target: T2, human TLR8 (Homo sapiens, UniProt Q9NR97); assay: TLR8 cellular NFκB-luc reporter assay; format: cell-based; parameters: unit not given here; conditions: lowest effective concentration; HEK293 cells transiently transfected with TLR8 and NFκB-luc, 6 h incubation
# T2 construct: expressed in transfected cells; host or cells: HEK293
# T2 sequence (Q9NR97 27-1041): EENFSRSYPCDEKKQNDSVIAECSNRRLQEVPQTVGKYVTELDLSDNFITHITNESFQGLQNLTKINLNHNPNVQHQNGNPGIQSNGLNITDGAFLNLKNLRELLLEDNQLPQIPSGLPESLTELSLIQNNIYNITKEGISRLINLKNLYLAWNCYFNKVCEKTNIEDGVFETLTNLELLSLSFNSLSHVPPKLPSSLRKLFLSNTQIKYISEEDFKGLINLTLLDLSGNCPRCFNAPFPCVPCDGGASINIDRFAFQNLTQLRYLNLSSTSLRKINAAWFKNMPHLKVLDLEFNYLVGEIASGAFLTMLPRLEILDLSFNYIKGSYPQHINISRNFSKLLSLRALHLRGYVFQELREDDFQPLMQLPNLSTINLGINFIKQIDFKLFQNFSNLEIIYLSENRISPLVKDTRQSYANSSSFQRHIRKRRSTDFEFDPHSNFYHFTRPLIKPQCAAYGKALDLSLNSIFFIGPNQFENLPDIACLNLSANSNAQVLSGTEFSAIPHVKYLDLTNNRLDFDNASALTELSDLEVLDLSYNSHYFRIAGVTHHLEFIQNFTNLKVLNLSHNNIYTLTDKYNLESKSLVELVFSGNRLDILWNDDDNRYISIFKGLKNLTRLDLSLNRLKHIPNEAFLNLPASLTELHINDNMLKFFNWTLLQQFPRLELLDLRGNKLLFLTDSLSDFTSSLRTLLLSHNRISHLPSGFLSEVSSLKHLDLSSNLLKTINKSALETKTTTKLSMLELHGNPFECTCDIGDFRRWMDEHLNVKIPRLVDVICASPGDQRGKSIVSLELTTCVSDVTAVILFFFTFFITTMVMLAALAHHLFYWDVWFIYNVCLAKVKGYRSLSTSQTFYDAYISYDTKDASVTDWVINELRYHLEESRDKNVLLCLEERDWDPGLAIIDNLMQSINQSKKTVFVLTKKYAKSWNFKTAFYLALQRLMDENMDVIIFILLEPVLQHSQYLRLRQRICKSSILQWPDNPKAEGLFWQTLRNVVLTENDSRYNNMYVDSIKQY
# Method: as §1, §2
compound,measurement,setting,value
"CCCC[C@H](CO)Nc1nc(N)nc2cccc(C3CC3)c12 [Compound 99, (R)-2-((2-amino-5-cyclopropylquinazolin-4-yl)amino)hexan-1-ol]",hTLR7-wt (LEC),human TLR7,>100
same,hTLR8-wt (LEC),human TLR8,0.35
"CCCC[C@H](CO)Nc1nc(N)nc2cccc(F)c12 [Compound 100, (R)-2-((2-amino-5-fluoroquinazolin-4-yl)amino)hexan-1-ol]",hTLR7-wt (LEC),human TLR7,27.7
same,hTLR8-wt (LEC),human TLR8,0.07
"CCCC[C@H](CO)Nc1nc(N)nc2cccc(C(F)(F)F)c12 [Compound 101, (R)-2-((2-amino-5-(trifluoromethyl)quinazolin-4-yl)amino)hexan-1-ol]",hTLR7-wt (LEC),human TLR7,>100
same,hTLR8-wt (LEC),human TLR8,0.66
"CCCC[C@H](CO)Nc1nc(N)nc2cc(C#N)ccc12 [Compound 102, (R)-2-amino-4-((1-hydroxyhexan-2-yl)amino)quinazoline-7-carbonitrile]",hTLR7-wt (LEC),human TLR7,>100
same,hTLR8-wt (LEC),human TLR8,0.14
"CCCC[C@H](CO)Nc1nc(N)nc2cc(-c3nnco3)ccc12 [Compound 103, (R)-2-((2-amino-7-(1,3,4-oxadiazol-2-yl)quinazolin-4-yl)amino)hexan-1-ol]",hTLR7-wt (LEC),human TLR7,>25
same,hTLR8-wt (LEC),human TLR8,0.38
"CCC[C@H](CO)Nc1nc(N)nc2c(C)cccc12 [Compound 104, (R)-2-((2-amino-8-methylquinazolin-4-yl)amino)pentan-1-ol]",hTLR7-wt (LEC),human TLR7,>25
same,hTLR8-wt (LEC),human TLR8,5.75
"CCCC[C@H](CO)Nc1nc(N)nc2c(C)cccc12 [Compound 105, (R)-2-((2-amino-8-methylquinazolin-4-yl)amino)hexan-1-ol]",hTLR7-wt (LEC),human TLR7,>25
same,hTLR8-wt (LEC),human TLR8,0.46
"CCCC[C@H](CO)Nc1nc(N)nc2c(Cl)cccc12 [Compound 106, (R)-2-((2-amino-8-chloroquinazolin-4-yl)amino)hexan-1-ol]",hTLR7-wt (LEC),human TLR7,>25
same,hTLR8-wt (LEC),human TLR8,2.72
"CCCC[C@H](CO)Nc1nc(N)nc2c(F)cccc12 [Compound 107, (R)-2-((2-amino-8-fluoroquinazolin-4-yl)amino)hexan-1-ol]",hTLR7-wt (LEC),human TLR7,>25
same,hTLR8-wt (LEC),human TLR8,0.11
"CCC[C@H](CO)Nc1nc(N)nc2c(F)cccc12 [Compound 108, (R)-2-((2-amino-8-fluoroquinazolin-4-yl)amino)pentan-1-ol]",hTLR7-wt (LEC),human TLR7,>25
same,hTLR8-wt (LEC),human TLR8,3.27
"CCCC[C@H](COC(=O)C(C)C)Nc1nc(N)nc2c(C)cccc12 [Compound 109, (R)-2-((2-amino-8-methylquinazolin-4-yl)amino)hexyl isobutyrate]",hTLR7-wt (LEC),human TLR7,>25
same,hTLR8-wt (LEC),human TLR8,0.64
"CCCC[C@H](CO)Nc1nc(N)nc2cc(F)ccc12 [Compound 111, (R)-2-((2-amino-7-fluoroquinazolin-4-yl)amino)hexan-1-ol]",hTLR8-wt (LEC),human TLR8,0.04
"CCCC[C@H](CO)Nc1nc(N)nc2cccc(Cl)c12 [Compound 113, (R)-2-((2-amino-5-chloroquinazolin-4-yl)amino)hexan-1-ol]",hTLR7-wt (LEC),human TLR7,>100
"CCCC[C@H](CO)Nc1nc(N)nc2cccc(C)c12 [Compound 114, (R)-2-((2-amino-5-methylquinazolin-4-yl)amino)hexan-1-ol]",hTLR7-wt (LEC),human TLR7,>100
"CCCC[C@H](CO)Nc1nc(N)nc2c(OC)cccc12 [Compound 115, (R)-2-((2-amino-8-methoxyquinazolin-4-yl)amino)hexan-1-ol]",hTLR7-wt (LEC),human TLR7,>50
same,hTLR8-wt (LEC),human TLR8,3.74
"CCCC[C@H](CO)Nc1nc(N)nc2cc(C(=O)OC)ccc12 [Compound 116, Methyl (R)-2-amino-4-((1-hydroxyhexan-2-yl)amino)quinazoline-7-carboxylate]",hTLR7-wt (LEC),human TLR7,>100
same,hTLR8-wt (LEC),human TLR8,0.57
"CCCC[C@H](CO)Nc1nc(N)nc2c(F)c(F)ccc12 [Compound 117, (R)-2-((2-amino-7,8-difluoroquinazolin-4-yl)amino)hexan-1-ol]",hTLR7-wt (LEC),human TLR7,>100
same,hTLR8-wt (LEC),human TLR8,0.41
"CSCC[C@H](CO)Nc1nc(N)nc2cccc(F)c12 [Compound 118, (R)-2-((2-amino-5-fluoroquinazolin-4-yl)amino)-4-(methylthio)butan-1-ol]",hTLR7-wt (LEC),human TLR7,>50
same,hTLR8-wt (LEC),human TLR8,0.7
"CC[C@H](C)[C@H](CO)Nc1nc(N)nc2cccc(F)c12 [Compound 119, (2R,3S)-2-((2-amino-5-fluoroquinazolin-4-yl)amino)-3-methylpentan-1-ol]",hTLR7-wt (LEC),human TLR7,1.71
same,hTLR8-wt (LEC),human TLR8,0.09
